{
  "source": "patent US20180021257A1",
  "about": "“WATER-SOLUBLE PHARMACEUTICAL COMPOSITION COMPRISING AT LEAST ONE THERAPEUTICALLY ACTIVE SUBSTANCE AND AT LEAST ONE SUBSTANCE CAPABLE OF FORMING MICELLES” (CONSEJO NACIONAL DE INVESTIGACIONES CIENTIFICAS Y TECNICAS …, priority 2015, published 2018)",
  "key": {"[1]": {"experiment": "Loading of Ptx into antibiotic micelles, quantified by HPLC", "type": "physicochemical", "settings": "for Maximum load / loading capacity: Ptx or Dtx in micelles; for Ptx loaded (%): 30 minutes, Teicoplanina 100 mg/ml, Ptx added 5 mg; for Ptx in Teicoplanin micelles: Teicoplanin 200 mg/ml", "procedure": "Samples with 400 mg of teicoplanin were dissolved in 2 ml of distilled water at pH 5.5 or in 2 ml of phosphate buffer solution of 20 mM at pH 6, with gentle stirring in order to obtain full dissolution. The solution was allowed to stand for at least 4 hours at 4° C. A 0.5 ml aliquot was incubated with 25 μl of DMSO having increasing amounts of Paclitaxel (Ptx) in order to reach the following final concentrations: 1 mg/ml, 5 mg/ml, 10 mg/ml and 20 mg/ml.\nThe solutions were incubated at 25° C. for at least 4 hours and then centrifuged at 15,000×g for 10 minutes to remove the potential insoluble Ptx that had not encapsulated in teicoplanin micelles. Finally, in order to remove the remaining DMSO, the samples were dialyzed with a phosphate buffer solution of 20 mM at pH 6 for 12 hours. The quantification of Ptx introduced into teicoplanin micelles was carried out by using HPLC.\nPtx is loaded into teicoplanin micelles at a concentration of 5 mg/ml, according to the description of Example 1, but for 30 minutes at 4° C., 25° C. and 37° C. After incubation, the samples were centrifuged at 15,000×g for 10 minutes and they were also dialyzed in distilled water for 12 hours at 4° C. Finally, the amount of Ptx introduced into the teicoplanin micelle in a soluble way was quantified by HPLC. […] The load in all conditions was higher than 90%."}, "[2]": {"experiment": "Particle size of micelles by dynamic light scattering (DLS)", "type": "physicochemical", "settings": "for Diameter of micelles: comparative study, dynamic light scattering", "source_text": "Determining Particle Size of Teico, Teico-Ptx and Teico-PTX-Alb Micelles by Dynamic Light Scattering (DLS)"}, "[3]": {"settings": "cited from earlier work; for Micelles stable (Daptomycin: and biologically active): at 25° C."}, "[4]": {"settings": "cited from earlier work"}, "[5]": {"settings": "in vivo; cited from earlier work"}, "[6]": {"settings": "cited from earlier work", "remark": "listed apart in the source"}, "[7]": {"experiment": "Solubility in aqueous medium", "type": "physicochemical"}, "[8]": {"system": "HEP-2", "experiment": "In vitro cytotoxic activity in tumor cell culture (MTT test)", "type": "cell-based", "settings": "for Cell Death after 24 Hours of Treatment: HEP-2, MTT", "procedure": "Tumor cells, such as HEP-2, were incubated in MEM medium having fetal bovine serum by 2% (Natocor-Villa Carlos Paz—Cordoba—Argentina) in a CO2 incubator by 5% CO2, at confluence. Different concentrations of the compositions mentioned below were added to the cell culture: […]"}, "[9]": {"experiment": "Dialysis experiments on Teicoplanin micelles", "type": "physicochemical", "settings": "after 48 hours of dialysis", "procedure": "In fact, in dialysis experiments, it was shown a loss of about 25% of molecules of Teicoplanin after 48 hours of dialysis, while for the Teico-Ptx complex is was shown a loss of about 5 to 8%."}, "[10]": {"experiment": "Critical micelle concentration (CMC)", "type": "physicochemical"}, "[11]": {"system": "red blood cells (RBCs)"}, "[12]": {"experiment": "Loading of Ptx into antibiotic micelles, quantified by HPLC", "type": "physicochemical", "settings": "Teicoplanin 200 mg/ml; Ptx concentration 2.5 mg/ml"}, "[13]": {"settings": "aqueous medium with teicoplanin micelles, aqueous with cosolvent or surfactant or cyclodextrin"}, "[14]": {"settings": "aqueous medium without micelles"}},
  "note": "“And” between values parts separate entries of the source, which are not always exact repeats. Equal values may be shown once. Read-outs that look alike come from different tables or passages of the source.",
  "data": [
    {"compound": "CCCCCCCCCC(=O)N[C@@H](Cc1c[nH]c2ccccc12)C(=O)N[C@H](CC(N)=O)C(=O)N[C@@H](CC(=O)O)C(=O)N[C@@H]1C(=O)NCC(=O)N[C@@H](CCCN)C(=O)N[C@@H](CC(=O)O)C(=O)N[C@H](C)C(=O)N[C@@H](CC(=O)O)C(=O)NCC(=O)N[C@H](CO)C(=O)N[C@@H]([C@H](C)CC(=O)O)C(=O)N[C@@H](CC(=O)c2ccccc2N)C(=O)O[C@@H]1C", "note": "[Daptomycin]", "values": [
      {"measurement": "Maximum load / loading capacity", "setting": "[1]", "value": 5, "unit": "mg/mL"},
      {"measurement": "Diameter of micelles", "setting": "[2]", "value": 5, "unit": "nm"},
      {"measurement": "Micelles stable and biologically active", "setting": "[3]; at 4° C.", "value": 48, "unit": "hours"},
      {"measurement": "Micelles stable (Daptomycin: and biologically active)", "setting": "[3]", "value": 12, "unit": "hours"},
      {"measurement": "CMC", "setting": "[4]; pH 4, listed as Dapto micelles", "value": "400 μg/ml and 250 μM"},
      {"measurement": "Concentration at which molecule remains soluble", "setting": "[4]; pH 6.5", "value": 150, "unit": "mg/mL"},
      {"measurement": "Half life", "setting": "[5]", "value": "7 to 10", "unit": "h"},
      {"measurement": "Suggested maximum dose", "setting": "[6]; in vivo", "value": "10 to 12", "unit": "mg/kg/day"}
    ]},
    {"compound": "CC(=O)O[C@@]12CO[C@@H]1C[C@H](O)[C@@]1(C)C(=O)[C@H](O)C3=C(C)[C@@H](OC(=O)[C@H](O)[C@@H](NC(=O)OC(C)(C)C)c4ccccc4)C[C@@](O)([C@@H](OC(=O)c4ccccc4)[C@H]21)C3(C)C", "note": "[Dtx, Docetaxel]", "values": [
      {"measurement": "solubility", "setting": "[7]; [13]", "value": 10000, "unit": "µg/mL"},
      {"measurement": "solubility", "setting": "[7]; [14]", "value": "< 1", "unit": "µg/mL"}
    ]},
    {"compound": "CC(=O)O[C@H]1C(=O)[C@@]2(C)[C@H]([C@H](OC(=O)c3ccccc3)[C@]3(O)C[C@H](OC(=O)[C@H](O)[C@@H](NC(=O)c4ccccc4)c4ccccc4)C(C)=C1C3(C)C)[C@]1(OC(C)=O)CO[C@@H]1C[C@@H]2O", "note": "[Ptx, Paclitaxel]", "values": [
      {"measurement": "Cell Death after 24 Hours of Treatment", "setting": "[8]; Ptx 5 nM", "value": 10, "unit": "%"},
      {"measurement": "Cell Death after 24 Hours of Treatment", "setting": "[8]; Ptx 10 nM", "value": 25, "unit": "%"},
      {"measurement": "Cell Death after 24 Hours of Treatment", "setting": "[8]; Ptx 20 nM", "value": 40, "unit": "%"},
      {"measurement": "Cell Death after 24 Hours of Treatment", "setting": "[8]; Ptx 50 nM", "value": 90, "unit": "%"},
      {"measurement": "Killing of tumor cells", "setting": "[8]; in 24 hours up to a concentration of 50 ng/ml", "value": "complete killing"},
      {"measurement": "solubility", "setting": "[7]; [13]", "value": 10000, "unit": "µg/mL"},
      {"measurement": "solubility", "setting": "[7]; [14]", "value": "< 1", "unit": "µg/mL"}
    ]},
    {"compound": "Teicoplanin", "values": [
      {"measurement": "Ptx loaded (%)", "setting": "[1]; 4° C.", "value": 94, "unit": "%"},
      {"measurement": "Ptx loaded (%)", "setting": "[1]; 25° C.", "value": 96, "unit": "%"},
      {"measurement": "Ptx loaded (%)", "setting": "[1]; 37° C.", "value": 98, "unit": "%"},
      {"measurement": "Load capacity compared with Daptomycin", "setting": "[1]; Dtx or Ptx", "value": "twice"},
      {"measurement": "Maximum load / loading capacity", "setting": "[1]", "value": 10, "unit": "mg/mL"},
      {"measurement": "Maximum load / loading capacity", "setting": "[1]; listed as Teicoplanin micelles", "value": "about 10 mg/ml"},
      {"measurement": "Ptx in Teicoplanin micelles", "setting": "[1]; Ptx concentration 1 mg/ml", "value": 1, "unit": "mg/mL"},
      {"measurement": "Ptx in Teicoplanin micelles", "setting": "[1]; Ptx concentration 5 mg/ml", "value": 5, "unit": "mg/mL"},
      {"measurement": "Ptx in Teicoplanin micelles", "setting": "[1]; Ptx concentration 10 mg/ml", "value": 10, "unit": "mg/mL"},
      {"measurement": "Ptx in Teicoplanin micelles", "setting": "[1]; Ptx concentration 20 mg/ml", "value": 2, "unit": "mg/mL"},
      {"measurement": "Ptx load", "setting": "[1]; in all conditions (4° C., 25° C. and 37° C.)", "value": "higher than 90%"},
      {"measurement": "Cell Death after 24 Hours of Treatment", "setting": "[8]; Teico 5 μM control micelles without Ptx", "value": 0, "unit": "%"},
      {"measurement": "Effect on cells", "setting": "[8]; Teicoplanin by itself", "value": "no effect"},
      {"measurement": "Size larger than Dapto and Dapto-Ptx micelles", "setting": "[2]", "value": 40, "unit": "%"},
      {"measurement": "Particle size", "setting": "[2]; DLS, Example 5", "value": 8, "unit": "nm"},
      {"measurement": "Polydispersity index", "setting": "[2]; DLS, Example 5", "value": 0.017},
      {"measurement": "Diameter of micelles", "setting": "[2]", "value": 8, "unit": "nm"},
      {"measurement": "Loss of molecules of Teicoplanin", "setting": "[9]", "value": "about 25%"},
      {"measurement": "CMC", "setting": "[10]", "value": 100, "unit": "µM"},
      {"measurement": "Interaction with red blood cells (RBCs)", "setting": "[11]", "value": "neither Teicoplanin nor Teico-Ptx complex interact with red blood cells"},
      {"measurement": "Ptx in Teicoplanin micelles", "setting": "[12]", "value": 2.5, "unit": "mg/mL"},
      {"measurement": "Micelles stable", "setting": "[3]; at 4° C.", "value": 35, "unit": "days"},
      {"measurement": "Micelles stable (Daptomycin: and biologically active)", "setting": "[3]", "value": 48, "unit": "hours"},
      {"measurement": "Half life", "setting": "[5]", "value": "70 to 100", "unit": "h"},
      {"measurement": "Suggested maximum dose", "setting": "[6]; to avoid unwanted side effects or cytotoxicity", "value": 20, "unit": "mg/kg/day"}
    ]}
  ]
}
